Four molecules from ChEMBL document CHEMBL1151722, “Sesquiterpenoids and phenylpropanoids from Chloranthus serratus” (2008) can be followed below.

Each structure is given as a SMILES string. ≈ marks a conversion by molar mass, not a printed value.

This assay deals with Helicobacter pylori. Description: Antimicrobial activity against Helicobacter pylori-SS1. The class given is functional.

By MIC is commonly meant the least concentration at which growth counts as inhibited.

For `CC1=C2C(=O)c3c(C)coc3C[C@@]2(C)[C@H](O)CC1=O` [CHLORANTENE D], the MIC is 25 µg/mL (≈ 96 µM).
As for `C=C[C@]1(C)C(=O)c2occ(C)c2C(=O)[C@H]1C(=C)C` [CHLORANTENE F], the figure is 25 µg/mL (≈ 102 µM).
The same measure for `C=C1CC/C=C(\C)C(=O)c2occ(C)c2C(=O)C1` [CHLORANTENE E]: 25 µg/mL (≈ 102 µM); for `C=C1CCC[C@]2(C)CC[C@@](O)(C(C)C)C(=O)[C@@H]12` [CHLORANTENE G]: 25 µg/mL (≈ 106 µM).
